Patent US8202731B2, “HPTS-mono and bis Cys-MA polymerizable fluorescent dyes for use in analyte sensors” (Glumetrics, Inc., priority 2007, dated 2012)

Legend:
Assay type in all cases: physicochemical
[1] = Fluorescence of the dye in pH 7.4 PBS measured on the fluorimeter; conditions: pH 7.4 PBS (FIG. 9)
Procedure: Bis-MA was dissolved in pH 7.4 PBS and its fluorescence was measured on the fluorimeter. FIG. 9 compares Bis-MA with the Mono- and Tri-substituted HPTS derivatives.

[2] = Comparison of dyes: emission/absorbance ratio (apparent quantum yield) in pH 7.4 PBS; conditions: 1 × 10^−5 M in pH 7.4 PBS
[3] = Determination of dye pKa via pH study, dye immobilized in 40% DMAA hydrogel
Procedure: A hydrogel was prepared containing mono-CysMA, as described previously in U.S. patent application Ser. No. 11/671,880, to evaluate the fluorescence properties (excitation (ex), emission (em) and pKa) of mono-CysMA.
A pH study was carried out with the gel.
The three polymerizable dyes were immobilized using 40% DMAA and their pKa determined via a pH study.

| SMILES | Shift of fluorescence spectrum relative to mono- and tri-substituted HPTS derivatives [1] | Absorbance [2] | Intensity at max ([2]; emission) | Ratio (“Quantum Yield”) ([2]; Em/Abs ratio, apparent quantum yield, arbitrary numbers) | pKa ([3]; dye immobilized in 40% DMAA hydrogel, polymerizable dyes immobilized using 40% DMAA, pH study) | pKa ([3]; pH study with hydrogel containing mono-CysMA (FIG. 2), HPTS given for comparison) |
| --- | --- | --- | --- | --- | --- | --- |
| C=C(C)C(=O)NCCCNS(=O)(=O)c1cc(S(=O)(=O)NCCCNC(=O)C(=C)C)c2ccc3c(S(=O)(=O)[O-])cc(O)c4ccc1c2c43.[Na+] [Bis-MA] | red-shifted relative to the Mono product but blue-shifted relative to the Tri product | – | – | – | – | – |
| O=S(=O)(O)c1cc(O)c2ccc3c(S(=O)(=O)O)cc(S(=O)(=O)O)c4ccc1c2c34 [HPTS, 8-hydroxypyrene-1,3,6-trisulfonic acid] | – | 0.1565 | 553 | 3533 | 7.3 | 7.3 |
